Experimental data as given in US7713952B2, “2-methylene-19,26,27-trinor-(20S)-1α-hydroxyvitamin D3 and its uses” (Wisconsin Alumni Research Foundation, priority 2004, dated 2010).

How the values were obtained:
vitamin D-deficient rats [1] = test: Bone calcium mobilization (serum calcium); format: in vivo, rat; conditions: rats on 0.02% Ca diet
Procedure: (§1) Intestinal Calcium Transport and Bone Calcium Mobilization
(§2) Male, weanling Sprague-Dawley rats were placed on Diet 11 (0.47% Ca) diet +AEK for one week followed by Diet 11 (0.02% Ca) +AEK for 3 weeks. The rats were then switched to a diet containing 0.47% Ca for one week followed by two weeks on a diet containing 0.02% Ca. Dose administration began during the last week on 0.02% calcium diet. Four consecutive ip doses were given approximately 24 hours apart. Twenty-four hours after the last dose, blood was collected from the severed neck and the concentration of serum calcium determined as a measure of bone calcium mobilization. The first 10 cm of the intestine was also collected for intestinal calcium transport analysis using the everted gut sac method.

[2] = system: Human promyelocytic leukemia (HL60) cells; test: HL-60 cell differentiation (nitro blue tetrazolium reduction); format: cell-based; conditions: 4 days, FIG. 2
Procedure: Radiolabeled and unlabeled ligands were added to 100 mcl of the diluted protein at a final ethanol concentration of ≦10%, mixed and incubated overnight on ice to reach binding equilibrium. The following day, 100 mcl of hydroxylapatite slurry (50%) was added to each tube and mixed at 10-minute intervals for 30 minutes. The hydroxylapaptite was collected by centrifugation and then washed three times with Tris-EDTA buffer (50 mM Tris, 1.5 mM EDTA, pH 7.4) containing 0.5% Titron X-100. After the final wash, the pellets were transferred to scintillation vials containing 4 ml of Biosafe II scintillation cocktail, mixed and placed in a scintillation counter. Total binding was determined from the tubes containing only radiolabeled ligand. • HL-60 Differentiation • Test Material Study Drugs
The study drugs were dissolved in ethanol and the concentrations determined using UV spectrophotometry. Serial dilutions were prepared so that a range of drug concentrations could be tested without changing the final concentration of ethanol (≦0.2%) present in the cell cultures. […]
HL60 cells were plated at 1.2×10^5 cells/ml. […] The percentage of differentiated cells was determined by counting a total of 200 cells and recording the number that contained intracellular black-blue formazan deposits. Verification of differentiation to monocytic cells was determined by measuring phagocytic activity (data not shown).

vitamin D-deficient rats [3] = test: Intestinal calcium transport (everted gut sac method); format: in vivo, rat; conditions: FIG. 6
Procedure: as §1, §2

[4] = system: 24-hydroxylase (24Ohase) gene promoter in ROS 17/2.8 (bone) cells; test: In vitro transcription assay (24-hydroxylase promoter luciferase reporter); format: cell-based; conditions: ROS 17/2.8 cells, 24OHase-luciferase, 16 h; FIG. 3; read-out: EC50, transcriptional activity in bone cells
Procedure: In Vitro Transcription Assay
Transcription activity was measured in ROS 17/2.8 (bone) cells that were stably transfected with a 24-hydroxylase (24Ohase) gene promoter upstream of a luciferase reporter gene (Arbour et al., 1998). Cells were given a range of doses. Sixteen hours after dosing the cells were harvested and luciferase activities were measured using a luminometer.
RLU=relative luciferase units.

[5] = target: T1, full-length recombinant rat vitamin D receptor (Rattus norvegicus, UniProt P13053); test: Vitamin D receptor competitive binding with [3H]-1,25(OH)2D3; conditions: full-length recombinant rat VDR; FIG. 1; read-out: Ki, competition with [3H]-1,25(OH)2D3 for binding to vitamin D receptor
T1 construct: Full-length recombinant rat receptor was expressed in E. coli; histidine tag (C); made in house; host or cells: E. coli BL21 (DE3) Codon Plus RIL
T1 sequence (P13053 1-423): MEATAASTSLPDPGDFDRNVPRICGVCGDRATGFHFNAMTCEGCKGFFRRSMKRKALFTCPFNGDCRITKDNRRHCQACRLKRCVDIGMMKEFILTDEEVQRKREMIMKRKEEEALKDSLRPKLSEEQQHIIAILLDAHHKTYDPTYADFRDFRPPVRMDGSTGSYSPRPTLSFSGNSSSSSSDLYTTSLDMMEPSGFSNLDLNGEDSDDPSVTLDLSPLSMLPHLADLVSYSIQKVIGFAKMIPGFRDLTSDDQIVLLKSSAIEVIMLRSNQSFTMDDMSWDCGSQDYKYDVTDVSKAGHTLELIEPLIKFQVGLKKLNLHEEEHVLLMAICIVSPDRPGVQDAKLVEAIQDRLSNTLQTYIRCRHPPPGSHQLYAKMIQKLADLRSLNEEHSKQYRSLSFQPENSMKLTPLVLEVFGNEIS
Procedure: Full-length recombinant rat receptor was expressed in E. coli BL21 (DE3) Codon Plus RIL cells and purified to homogeneity using two different column chromatography systems. The first system was a nickel affinity resin that utilizes the C-terminal histidine tag on this protein. The protein that was eluted from this resin was further purified using ion exchange chromatography (S-Sepharose Fast Flow). Aliquots of the purified protein were quick frozen in liquid nitrogen and stored at −80° C. until use. For use in binding assays, the protein was diluted in TEDK50 (50 mM Tris, 1.5 mM EDTA, pH7.4, 5 mM DTT, 150 mM KCl) with 0.1% Chaps detergent. The receptor protein and ligand concentration were optimized such that no more than 20% of the added radiolabeled ligand was bound to the receptor.
Radiolabeled and unlabeled ligands were added to 100 mcl of the diluted protein at a final ethanol concentration of ≦10%, mixed and incubated overnight on ice to reach binding equilibrium. The following day, 100 mcl of hydroxylapatite slurry (50%) was added to each tube and mixed at 10-minute intervals for 30 minutes. The hydroxylapaptite was collected by centrifugation and then washed three times with Tris-EDTA buffer (50 mM Tris, 1.5 mM EDTA, pH 7.4) containing 0.5% Titron X-100. […]

[6] = 87 or 780 pmol/day ip for 4 days

Row | SMILES | serum calcium levels (bone calcium mobilization) (vitamin D-deficient rats [1]; all dosages, FIG. 4) | EC50 [2] | intestinal calcium transport (vitamin D-deficient rats [3]; [6]) | EC50 [4] | mobilization of bone calcium (serum calcium) (vitamin D-deficient rats [1]; 87 pmol/day ip for 4 consecutive days) | mobilization of bone calcium (serum calcium) (vitamin D-deficient rats [1]; 780 pmol/day and 7020 pmol/day ip for 4 days) | EC50 ([2]; Homo sapiens, HL-60, 96 h) | Ki [5] | intestinal calcium transport (vitamin D-deficient rats [3]; 7020 pmol/day ip for 4 days)
1 | C=C1/C(=C\C=C2/CCC[C@]3(C)[C@@H]([C@H](C)CCCC(C)(C)O)CC[C@@H]23)C[C@@H](O)C[C@@H]1O [1,25(OH)2D3, 1α,25-dihydroxyvitamin D3, reference compound] | increased serum calcium levels at all dosages | 2.9 nM | promotes a significant increase |  |  |  |  |  | 
2 | C=C1[C@H](O)CC(=C/C=C2\CCC[C@@]3(C)C2CCC3[C@@H](C)CCCC)C[C@H]1O (stereo partly drawn) [OM, 2-methylene-19,26,27-trinor-(20S)-1α-hydroxyvitamin D3] |  |  | does not promote intestinal calcium transport | 3.2 nM | did not result in mobilization of bone calcium | without any substantial effect | 4.7 nM | 0.077 nM | significant intestinal calcium transport activity was recorded
